Experimental data published in patent US20220259202A1, “1-(4-(AMINOMETHYL)BENZYL)-2-BUTYL-2H-PYRAZOLO[3,4-C]QUINOLIN-4-AMINE DERIVATIVES AND RELATED COMPOUNDS AS TOLL-LIKE RECEPTOR (TLR) 7/8 AGONISTS, AS WELL AS ANTIBODY DRUG CONJUGATES THEREOF FOR USE IN CANCER THERAPY AND DIAGNOSIS” (SUTRO BIOPHARMA, INC., priority 2019, published 2022).

Legend:
Experiment in all cases: HEK293 SEAP reporter assay, other TLRs (Biological Example 3)
Type in all cases: cell-based
[1] = molecular target: T1, human TLR2 (Homo sapiens, UniProt O60603); conditions: 16 hrs, up to 1 μM
T1 construct: host or cells: HEK293
Source text: (§1) In this example, the activity of the Compound 1 to stimulate different human and mouse TLR pathways was investigated on HEK293 cells transfected with inducible SEAP (secreted embryonic alkaline phosphatase) reporter genes and also expressing different human TLRs (TLR2, TLR3, TLR4, TLR5, TLR7, TLR8, TLRS) or mouse TLRs (TLR2, TLR3, TLR4, TLR5, TLR7, TLR8, TLR13). Compound A
(§2) HEK293 reporter cell lines were purchased from Invivogen and cell lines were maintained in manufacture recommended culture medium with required supplemental antibiotics. On the day of assay, the cells were harvested with Accutase and counted by the Vi-CELL Cell Viability Analyzers. Cells were re-suspended in HEK blue detection medium and a total of 10000 cells were seeded in each well of a 384-well flat bottom plate. […] Assay plates were cultured at 37° C. in a CO2 incubator for 16 hrs. HEK-Blue™ Detection medium changes to a purple/blue color in the presence of secreted SEAP, which can be detected by spectrophotometry at 620-655 nm. Data was fitted with non-linear regression analysis, using a log(inhibitor) vs. response-variable slope, 3-parameter fit with GraphPad Prism.

[2] = molecular target: T2, human TLR4 (Homo sapiens, UniProt O00206+Q9Y6Y9); conditions: 16 hrs, up to 1 μM
T2 construct: host or cells: HEK293
Source text: as §1, §2

[3] = molecular target: T3, mouse TLR7 (Mus musculus, UniProt P58681); conditions: 16 hrs, * = Estimated
T3 construct: host or cells: HEK293
T3 sequence (P58681 27-1050): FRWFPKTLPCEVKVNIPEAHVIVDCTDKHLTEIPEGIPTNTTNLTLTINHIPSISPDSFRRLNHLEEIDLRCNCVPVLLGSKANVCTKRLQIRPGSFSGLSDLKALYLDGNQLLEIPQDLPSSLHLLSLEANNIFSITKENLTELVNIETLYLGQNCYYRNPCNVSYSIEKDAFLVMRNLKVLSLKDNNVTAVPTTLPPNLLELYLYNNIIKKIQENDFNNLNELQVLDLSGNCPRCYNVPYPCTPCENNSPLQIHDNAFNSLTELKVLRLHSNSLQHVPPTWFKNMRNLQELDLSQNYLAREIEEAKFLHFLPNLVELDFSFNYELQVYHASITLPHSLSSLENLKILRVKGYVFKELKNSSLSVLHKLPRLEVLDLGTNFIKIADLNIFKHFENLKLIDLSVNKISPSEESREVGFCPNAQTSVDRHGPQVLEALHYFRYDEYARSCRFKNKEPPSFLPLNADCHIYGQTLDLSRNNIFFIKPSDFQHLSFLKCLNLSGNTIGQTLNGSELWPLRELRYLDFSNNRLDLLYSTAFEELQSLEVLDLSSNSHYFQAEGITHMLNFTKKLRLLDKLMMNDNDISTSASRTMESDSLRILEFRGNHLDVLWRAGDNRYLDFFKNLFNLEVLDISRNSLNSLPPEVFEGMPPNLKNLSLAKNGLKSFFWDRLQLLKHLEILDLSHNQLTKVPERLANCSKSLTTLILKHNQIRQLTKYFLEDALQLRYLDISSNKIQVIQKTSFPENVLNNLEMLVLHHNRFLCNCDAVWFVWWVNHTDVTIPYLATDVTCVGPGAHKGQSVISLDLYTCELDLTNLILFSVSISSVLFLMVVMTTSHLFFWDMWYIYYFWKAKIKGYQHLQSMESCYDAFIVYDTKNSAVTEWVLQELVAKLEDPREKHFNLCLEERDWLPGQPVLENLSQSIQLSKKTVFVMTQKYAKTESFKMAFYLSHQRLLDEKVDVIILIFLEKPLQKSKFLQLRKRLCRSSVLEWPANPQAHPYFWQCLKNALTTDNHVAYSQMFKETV
Source text: as §1, §2

[4] = molecular target: T4, mouse TLR8 (Mus musculus, UniProt P58682); conditions: 16 hrs, up to 1 μM
T4 construct: host or cells: HEK293
T4 sequence (P58682 24-1032): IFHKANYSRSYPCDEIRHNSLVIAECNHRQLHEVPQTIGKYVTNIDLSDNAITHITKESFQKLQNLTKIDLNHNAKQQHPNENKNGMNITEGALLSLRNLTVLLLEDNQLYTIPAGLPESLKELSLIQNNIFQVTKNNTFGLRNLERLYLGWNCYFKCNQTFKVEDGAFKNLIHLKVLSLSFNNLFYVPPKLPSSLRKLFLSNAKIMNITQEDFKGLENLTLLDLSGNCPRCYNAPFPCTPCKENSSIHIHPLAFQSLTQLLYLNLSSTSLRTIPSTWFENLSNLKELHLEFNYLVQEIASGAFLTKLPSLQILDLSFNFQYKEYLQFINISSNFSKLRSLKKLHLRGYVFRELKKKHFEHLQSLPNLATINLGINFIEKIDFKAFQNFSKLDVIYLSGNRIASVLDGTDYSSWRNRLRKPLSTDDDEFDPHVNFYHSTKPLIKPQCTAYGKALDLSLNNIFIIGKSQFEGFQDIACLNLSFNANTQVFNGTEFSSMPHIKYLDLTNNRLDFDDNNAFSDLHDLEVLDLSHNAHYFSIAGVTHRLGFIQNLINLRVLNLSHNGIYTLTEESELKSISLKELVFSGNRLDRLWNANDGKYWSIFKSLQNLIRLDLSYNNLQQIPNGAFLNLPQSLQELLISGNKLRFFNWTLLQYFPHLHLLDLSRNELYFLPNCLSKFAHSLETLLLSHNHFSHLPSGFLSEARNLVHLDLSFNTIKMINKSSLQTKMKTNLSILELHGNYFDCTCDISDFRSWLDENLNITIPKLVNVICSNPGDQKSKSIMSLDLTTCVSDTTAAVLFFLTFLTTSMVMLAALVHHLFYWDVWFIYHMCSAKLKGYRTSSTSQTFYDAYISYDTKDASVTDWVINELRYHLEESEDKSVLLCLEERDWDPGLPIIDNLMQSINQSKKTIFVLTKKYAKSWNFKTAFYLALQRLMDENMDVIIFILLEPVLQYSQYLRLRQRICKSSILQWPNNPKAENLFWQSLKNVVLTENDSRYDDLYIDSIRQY
Source text: as §1, §2

T2 sequence (O00206 24-839): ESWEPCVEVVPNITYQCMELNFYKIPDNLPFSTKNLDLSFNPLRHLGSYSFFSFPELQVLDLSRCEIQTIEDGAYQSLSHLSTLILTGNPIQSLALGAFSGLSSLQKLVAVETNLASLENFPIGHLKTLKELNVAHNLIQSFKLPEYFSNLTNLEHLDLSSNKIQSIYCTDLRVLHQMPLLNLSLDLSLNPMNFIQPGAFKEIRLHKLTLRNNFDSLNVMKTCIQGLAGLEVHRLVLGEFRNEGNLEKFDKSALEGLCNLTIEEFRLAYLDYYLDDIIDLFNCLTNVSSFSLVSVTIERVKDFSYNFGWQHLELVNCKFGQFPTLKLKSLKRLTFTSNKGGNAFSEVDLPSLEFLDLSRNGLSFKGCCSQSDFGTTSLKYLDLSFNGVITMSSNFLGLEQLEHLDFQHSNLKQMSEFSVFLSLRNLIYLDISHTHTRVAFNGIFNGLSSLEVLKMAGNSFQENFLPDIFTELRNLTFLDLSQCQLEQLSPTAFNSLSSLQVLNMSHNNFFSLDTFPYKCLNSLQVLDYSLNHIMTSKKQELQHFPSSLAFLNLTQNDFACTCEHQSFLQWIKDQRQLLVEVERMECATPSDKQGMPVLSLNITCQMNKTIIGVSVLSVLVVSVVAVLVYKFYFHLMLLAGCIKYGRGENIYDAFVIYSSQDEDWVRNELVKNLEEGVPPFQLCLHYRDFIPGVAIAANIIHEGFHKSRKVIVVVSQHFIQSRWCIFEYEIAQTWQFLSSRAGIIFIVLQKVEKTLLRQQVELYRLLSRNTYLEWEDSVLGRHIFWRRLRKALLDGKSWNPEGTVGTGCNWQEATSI
T2 sequence (Q9Y6Y9 17-160 limits assumed): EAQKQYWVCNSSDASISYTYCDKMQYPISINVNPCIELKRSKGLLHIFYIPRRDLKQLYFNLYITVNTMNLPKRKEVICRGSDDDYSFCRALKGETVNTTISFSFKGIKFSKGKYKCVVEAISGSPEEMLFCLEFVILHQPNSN
T1 sequence (O60603 21-784): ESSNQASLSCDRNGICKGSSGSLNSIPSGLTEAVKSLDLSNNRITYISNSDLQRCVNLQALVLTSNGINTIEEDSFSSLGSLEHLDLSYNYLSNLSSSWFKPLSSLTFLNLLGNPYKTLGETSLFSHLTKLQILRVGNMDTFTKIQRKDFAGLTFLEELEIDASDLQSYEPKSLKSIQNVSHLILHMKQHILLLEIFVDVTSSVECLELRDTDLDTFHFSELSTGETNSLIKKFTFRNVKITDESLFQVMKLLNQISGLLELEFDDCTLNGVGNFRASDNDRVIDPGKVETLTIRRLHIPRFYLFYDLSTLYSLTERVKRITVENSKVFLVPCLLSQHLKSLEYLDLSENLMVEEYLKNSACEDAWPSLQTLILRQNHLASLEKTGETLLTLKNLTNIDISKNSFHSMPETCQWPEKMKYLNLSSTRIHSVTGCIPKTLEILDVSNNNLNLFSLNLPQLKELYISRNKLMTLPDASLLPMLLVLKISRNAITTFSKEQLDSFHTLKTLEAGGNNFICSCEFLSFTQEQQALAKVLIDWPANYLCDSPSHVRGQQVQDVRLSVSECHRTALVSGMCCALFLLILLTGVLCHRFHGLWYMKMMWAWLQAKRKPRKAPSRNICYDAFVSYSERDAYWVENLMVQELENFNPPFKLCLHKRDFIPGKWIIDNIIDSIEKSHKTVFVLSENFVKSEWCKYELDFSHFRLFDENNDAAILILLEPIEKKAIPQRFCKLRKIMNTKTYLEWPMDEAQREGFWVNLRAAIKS

CCCCn1nc2c(N)nc3ccccc3c2c1Cc1ccc(CN)cc1 [Compound 1, 1-(4-(aminomethyl)benzyl)-2-butyl-2H-pyrazolo[3,4-c]quinolin-4-amine]
EC50 [1]: > 1000 nM | EC50 [2]: > 1000 nM | EC50 [3]: ~21.8 nM | EC50 [4]: > 1000 nM

CCCCc1nc2c(N)nc3ccccc3c2n1Cc1ccc(CN)cc1 [Compound A, reference compound]
EC50 [1]: > 1000 nM | EC50 [2]: > 1000 nM | EC50 [3]: 15.9 nM | EC50 [4]: > 1000 nM
